ChEMBL document CHEMBL1201862, “PubChem BioAssay data set” (2004)
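These data come from cells grown in 96-well plates and exposed to compound for 48 hours at five concentrations. GI50: concentration for 50% inhibition of growth.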 Active and inactive are the calls of the source. No stated cut-off is given here; in the data, active = GI50 up to about 1.1 µM and inactive = higher.

Legend:
Test in all cases: DTP human tumour cell line panel, 48 h
IGROV-1 = system: IGROV-1
SK-OV-3 = system: SK-OV-3
KM12 = system: KM12
NCI-H460 = system: NCI-H460
K562 = system: K562
M14 = system: M14
UACC-62 = system: UACC-62
SF-268 = system: SF-268
EKVX = system: EKVX
HOP-62 = system: HOP-62
CAKI-1 = system: CAKI-1
SK-MEL-5 = system: SK-MEL-5
SF-539 = system: SF-539
OVCAR-4 = system: OVCAR-4
OVCAR-5 = system: OVCAR-5
SK-MEL-28 = system: SK-MEL-28

Measured: GI50

CC#COP(=O)(OCC)OCC
inactive: IGROV-1 > 100 µM | SK-OV-3 > 100 µM | KM12 > 100 µM | NCI-H460 > 100 µM | K562 > 100 µM | M14 > 100 µM | UACC-62 > 100 µM | SF-268 > 100 µM | EKVX > 100 µM | HOP-62 > 100 µM | CAKI-1 > 100 µM | SK-MEL-5 > 100 µM | SF-539 > 100 µM | OVCAR-4 > 100 µM | OVCAR-5 > 100 µM

COC(=O)C(Cc1nc2ccc(Cl)cc2nc1O)/C(=N\N)C(=O)Nc1cc(C)c(Cl)cc1S(=O)(=O)O (stereo not given)
inactive: IGROV-1 > 100 µM | SK-OV-3 > 100 µM | SK-MEL-28 > 100 µM | KM12 > 100 µM | NCI-H460 > 100 µM | K562 > 100 µM | M14 > 100 µM | UACC-62 > 100 µM | SF-268 > 100 µM | EKVX > 100 µM | HOP-62 > 100 µM | CAKI-1 > 100 µM | SK-MEL-5 > 100 µM | SF-539 > 100 µM | OVCAR-4 > 100 µM | OVCAR-5 75.7 µM

CC(C)(C)C1=CC(=C2C(=O)C(=O)c3ccccc3C2=O)C=C(C(C)(C)C)C1=O
inactive: IGROV-1 24.1 µM | SK-OV-3 > 100 µM | SK-MEL-28 > 100 µM | KM12 > 100 µM | NCI-H460 85.5 µM | K562 32.1 µM | M14 37.5 µM | UACC-62 32.7 µM | SF-268 > 100 µM | EKVX 35.5 µM | HOP-62 > 100 µM | CAKI-1 52.1 µM | SK-MEL-5 48.5 µM | SF-539 82.2 µM | OVCAR-5 > 100 µM

C#Cc1ccccc1N1C(=O)C=CC1=O
inactive: IGROV-1 > 100 µM | SK-OV-3 > 100 µM | SK-MEL-28 > 100 µM | NCI-H460 > 100 µM | K562 > 100 µM | M14 > 100 µM | UACC-62 > 100 µM | SF-268 > 100 µM | EKVX > 100 µM | HOP-62 > 100 µM | CAKI-1 > 100 µM | SK-MEL-5 > 100 µM | OVCAR-4 > 100 µM | OVCAR-5 > 100 µM

C/C(=C1/CCCC2(N=NCC2c2ccccc2)C1=O)c1ccccc1 (stereo not given)
inactive: IGROV-1 42.4 µM | SK-OV-3 30.7 µM | SK-MEL-28 26.9 µM | KM12 15.9 µM | NCI-H460 26.3 µM | K562 12 µM | M14 13.8 µM | UACC-62 16.3 µM | SF-268 65.3 µM | EKVX 28.3 µM | SK-MEL-5 12.7 µM | SF-539 41.2 µM | OVCAR-4 30.7 µM | OVCAR-5 36 µM

Cc1ccc(NC(=O)C(=O)C(C2C(C)CC(=O)C2CC(=O)O)[N+](=O)[O-])cc1 (stereo not given)
inactive: IGROV-1 > 100 µM | SK-OV-3 > 100 µM | SK-MEL-28 > 100 µM | KM12 > 100 µM | NCI-H460 > 100 µM | K562 > 100 µM | M14 > 100 µM | UACC-62 > 100 µM | SF-268 > 100 µM | EKVX > 100 µM | HOP-62 > 100 µM | CAKI-1 > 100 µM | SK-MEL-5 > 100 µM | SF-539 > 100 µM | OVCAR-4 > 100 µM | OVCAR-5 > 100 µM

Fc1cccc2c1cc1ccc3cccc4ccc2c1c34
inactive: IGROV-1 > 100 µM | SK-OV-3 > 100 µM | SK-MEL-28 > 100 µM | KM12 > 100 µM | K562 > 100 µM | M14 > 100 µM | UACC-62 > 100 µM | SF-268 > 100 µM | EKVX > 100 µM | HOP-62 > 100 µM | CAKI-1 > 100 µM | SK-MEL-5 > 100 µM | SF-539 > 100 µM | OVCAR-4 > 100 µM | OVCAR-5 > 100 µM

Cc1cccc(C)c1N1C(=O)C(=O)C(c2nc3ccccc3s2)/C(=N\N)C1=O (stereo not given)
inactive: IGROV-1 > 100 µM | SK-OV-3 > 100 µM | SK-MEL-28 > 100 µM | KM12 52 µM | NCI-H460 > 100 µM | K562 31.8 µM | M14 > 100 µM | UACC-62 77.4 µM | SF-268 > 100 µM | EKVX 47 µM | HOP-62 > 100 µM | CAKI-1 > 100 µM | SK-MEL-5 > 100 µM | SF-539 > 100 µM | OVCAR-4 > 100 µM | OVCAR-5 > 100 µM

Cc1nc2cc(N)c(F)cc2[nH]1
inactive: IGROV-1 > 100 µM | SK-OV-3 > 100 µM | SK-MEL-28 > 100 µM | KM12 > 100 µM | NCI-H460 > 100 µM | K562 > 100 µM | UACC-62 > 100 µM | SF-268 > 100 µM | EKVX > 100 µM | HOP-62 > 100 µM | CAKI-1 > 100 µM | SK-MEL-5 > 100 µM | SF-539 > 100 µM | OVCAR-4 > 100 µM | OVCAR-5 > 100 µM

COc1ccc(C(=O)O/N=C2\CCCC\C2=C/c2ccccc2)cc1
inactive: IGROV-1 > 100 µM | SK-OV-3 > 100 µM | SK-MEL-28 > 100 µM | NCI-H460 > 100 µM | K562 > 10 µM | M14 > 100 µM | UACC-62 > 100 µM | SF-268 67.1 µM | EKVX > 100 µM | HOP-62 45.3 µM | CAKI-1 81.5 µM | SK-MEL-5 > 100 µM | SF-539 27.5 µM | OVCAR-4 27.6 µM

C/C(=N\NC(N)=S)c1ccc(C)cc1C
inactive: IGROV-1 48.8 µM | SK-OV-3 > 100 µM | KM12 60.8 µM | NCI-H460 64.7 µM | K562 81.5 µM | M14 > 100 µM | UACC-62 38.9 µM | EKVX 8.41 µM | HOP-62 > 100 µM | CAKI-1 > 100 µM | SK-MEL-5 21.7 µM | SF-539 > 100 µM | OVCAR-4 84.5 µM | OVCAR-5 27 µM

O=C(Nc1nc2ncn(CCO)c2c(=S)[nH]1)c1ccccc1
inactive: IGROV-1 > 100 µM | SK-OV-3 > 100 µM | KM12 > 100 µM | NCI-H460 > 100 µM | K562 > 100 µM | M14 > 100 µM | UACC-62 > 100 µM | SF-268 > 100 µM | EKVX > 100 µM | HOP-62 > 100 µM | CAKI-1 > 100 µM | SK-MEL-5 > 100 µM | SF-539 > 100 µM | OVCAR-4 > 100 µM | OVCAR-5 > 100 µM

O=C1C=C(O)C(=Cc2c(O)cc(O)cc2O)C(O)=C1
inactive: IGROV-1 > 100 µM | SK-OV-3 > 100 µM | KM12 > 100 µM | NCI-H460 > 100 µM | K562 > 100 µM | M14 > 100 µM | UACC-62 > 100 µM | SF-268 > 100 µM | EKVX > 100 µM | HOP-62 > 100 µM | CAKI-1 > 100 µM | SK-MEL-5 > 100 µM | SF-539 > 100 µM | OVCAR-4 > 100 µM | OVCAR-5 > 100 µM

CC(C)=CC(=O)CC(=O)C(=O)NCCNC(=O)C(=O)CC(=O)C=C(C)C
inactive: IGROV-1 > 50 µM | SK-OV-3 > 50 µM | SK-MEL-28 > 50 µM | KM12 > 50 µM | NCI-H460 > 50 µM | M14 > 50 µM | UACC-62 > 50 µM | SF-268 > 50 µM | EKVX > 50 µM | HOP-62 > 50 µM | CAKI-1 > 50 µM | SF-539 > 50 µM | OVCAR-4 > 50 µM | OVCAR-5 > 50 µM

CCOC(=O)C(OCC1CC=CCC1)Sc1ccccc1 (stereo not given)
inactive: IGROV-1 > 100 µM | SK-OV-3 > 100 µM | SK-MEL-28 > 100 µM | KM12 > 100 µM | NCI-H460 > 100 µM | K562 > 100 µM | M14 > 100 µM | UACC-62 > 100 µM | SF-268 > 100 µM | EKVX > 100 µM | HOP-62 > 100 µM | CAKI-1 > 100 µM | SK-MEL-5 > 100 µM | SF-539 > 100 µM | OVCAR-5 > 100 µM

CCCC(=O)Nc1ccc(O)c2c1C1CCCCCC21 (stereo not given)
inactive: SK-OV-3 > 100 µM | SK-MEL-28 > 100 µM | KM12 96.4 µM | NCI-H460 > 100 µM | K562 64.9 µM | M14 > 100 µM | UACC-62 64 µM | SF-268 > 100 µM | EKVX > 100 µM | HOP-62 > 100 µM | SK-MEL-5 72.4 µM | OVCAR-4 68.5 µM

COC1[C@H](NC(=O)OC(C)(C)C)C(=O)N1Cc1ccccc1 (stereo not given in full)
inactive: IGROV-1 > 100 µM | SK-OV-3 > 100 µM | SK-MEL-28 > 100 µM | KM12 > 100 µM | NCI-H460 > 100 µM | K562 > 100 µM | M14 > 100 µM | UACC-62 > 100 µM | SF-268 > 100 µM | EKVX > 100 µM | HOP-62 > 100 µM | SK-MEL-5 > 100 µM | SF-539 > 100 µM | OVCAR-4 > 100 µM | OVCAR-5 > 100 µM

CC(C)NC(C)C(C)c1ccccc1 (stereo not given)
inactive: IGROV-1 > 100 µM | SK-OV-3 > 100 µM | SK-MEL-28 > 100 µM | KM12 > 100 µM | NCI-H460 > 100 µM | K562 > 100 µM | M14 > 100 µM | UACC-62 > 100 µM | SF-268 > 100 µM | EKVX > 100 µM | HOP-62 > 100 µM | CAKI-1 > 100 µM | SK-MEL-5 > 100 µM | SF-539 > 100 µM | OVCAR-4 > 100 µM
